Measured values as given in PubChem BioAssay AID248 (DTP/NCI, 2004).
Toxic doses and inconclusive results are not listed.

System: L1210 leukemia ip in BDF1 mice, survival T/C
Test: NCI In Vivo Anticancer Drug Screen. Data for tumor model L1210 Leukemia (intraperitoneal) in B6D2F1 (BDF1) mice
Conditions: endpoint: mean survival time, higher = longer survival
Procedure, shortened: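 Survival endpoint. Drug-treated group vs vehicle group, expressed as T divided by C. Tumor passaged by transplantation.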

[1] = dose: 50.0 mg/kg/injection, schedule: Q01DX009 (ip), vehicle: saline
[2] = dose: 200.0 mg/kg/injection, schedule: Q01DX009 (ip), vehicle: saline
[3] = dose: 100.0 mg/kg/injection, schedule: Q01DX009 (ip), vehicle: Klucel (hydroxypropylcellulose) (HPC)
[4] = dose: 100.0 mg/kg/injection, schedule: Q04DX002 (ip), vehicle: Klucel (hydroxypropylcellulose) (HPC)
[5] = dose: 200.0 mg/kg/injection, schedule: Q01DX009 (ip), vehicle: Klucel (hydroxypropylcellulose) (HPC)
[6] = dose: 200.0 mg/kg/injection, schedule: Q04DX002 (ip), vehicle: Klucel (hydroxypropylcellulose) (HPC)
[7] = dose: 400.0 mg/kg/injection, schedule: Q04DX002 (ip), vehicle: Klucel (hydroxypropylcellulose) (HPC)
[8] = dose: 100.0 mg/kg/injection, schedule: Q01DX001 (ip), vehicle: saline
[9] = dose: 200.0 mg/kg/injection, schedule: Q01DX001 (ip), vehicle: saline
[10] = dose: 400.0 mg/kg/injection, schedule: Q01DX001 (ip), vehicle: saline
[11] = dose: 100.0 mg/kg/injection, schedule: Q01DX001 (ip), vehicle: carboxymethylcellulose (CMC)
[12] = dose: 200.0 mg/kg/injection, schedule: Q01DX001 (ip), vehicle: carboxymethylcellulose (CMC)
[13] = dose: 400.0 mg/kg/injection, schedule: Q01DX001 (ip), vehicle: carboxymethylcellulose (CMC)

In the case of `CC(Cc1ccccc1)N(C)CC1C(=O)C2CCC1C2` (centres undefined), the T/C (dose: 75.0 mg/kg/injection, schedule: Q01DX001 (ip), vehicle: carboxymethylcellulose (CMC)) is reported as 102 % of control, the T/C (dose: 150.0 mg/kg/injection, schedule: Q01DX001 (ip), vehicle: carboxymethylcellulose (CMC)) is reported as 96 % of control and the T/C (dose: 300.0 mg/kg/injection, schedule: Q01DX001 (ip), vehicle: carboxymethylcellulose (CMC)) is reported as 96 % of control.
`CCCCCCP(=O)(CCCCCC)C1CCCCC1` was tested, and the T/C (dose: 25.0 mg/kg/injection, schedule: Q01DX001 (ip), vehicle: Klucel (hydroxypropylcellulose) (HPC)) was 94 % of control, the T/C (dose: 50.0 mg/kg/injection, schedule: Q01DX001 (ip), vehicle: Klucel (hydroxypropylcellulose) (HPC)) was 88 % of control and the T/C (dose: 100.0 mg/kg/injection, schedule: Q01DX001 (ip), vehicle: Klucel (hydroxypropylcellulose) (HPC)) was 102 % of control. The T/C (dose: 200.0 mg/kg/injection, schedule: Q01DX001 (ip), vehicle: saline with Tween-80) was 97 % of control.
`COc1c(OC)c(OC)c2c(=O)cc(-c3ccc4c(c3)OCO4)oc2c1OC` was tested, and the T/C (dose: 50.0 mg/kg/injection, schedule: Q01DX001 (ip), vehicle: other) was 103 % of control, the T/C (dose: 100.0 mg/kg/injection, schedule: Q01DX001 (ip), vehicle: other) was 100 % of control and the T/C (dose: 200.0 mg/kg/injection, schedule: Q01DX001 (ip), vehicle: other) was 100 % of control. The T/C (dose: 400.0 mg/kg/injection, schedule: Q01DX001 (ip), vehicle: other) was 91 % of control.
For `CC1(C)N=C(N)N=C(N)N1c1ccc(CCC(=O)Nc2ccc(S(=O)(=O)F)cc2)cc1`, the T/C (dose: 0.8 mg/kg/injection, schedule: Q01DX009 (ip), vehicle: saline) was 97 % of control, the T/C (dose: 4.0 mg/kg/injection, schedule: Q01DX009 (ip), vehicle: saline) was 105 % of control and the T/C (dose: 8.8 mg/kg/injection, schedule: Q01DX009 (ip), vehicle: saline) was 117 % of control. For the same compound, the T/C (dose: 13.0 mg/kg/injection, schedule: Q01DX009 (ip), vehicle: saline) was 121 % of control, the T/C (dose: 20.0 mg/kg/injection, schedule: Q01DX009 (ip), vehicle: saline) was 121 % of control and the T/C [1] was 163 % of control. For the same compound, the T/C (dose: 75.0 mg/kg/injection, schedule: Q## X003 (ip), vehicle: saline) was 122 % of control, the T/C [2] was 100 % of control and the T/C (dose: 600.0 mg/kg/injection, schedule: Q## X003 (ip), vehicle: saline) was 102 % of control.
In the case of `CCOC(=O)C(CC(C(=O)OCC)C(=O)OCC)C(=O)OCC`, the T/C (dose: 75.0 mg/kg/injection, schedule: Q01DX009 (ip), vehicle: saline) is reported as 98 % of control, the T/C (dose: 100.0 mg/kg/injection, schedule: Q04DX003 (ip), vehicle: saline) is reported as 113 % of control and the T/C (dose: 150.0 mg/kg/injection, schedule: Q01DX009 (ip), vehicle: saline) is reported as 98 % of control. For the same compound, the T/C (dose: 200.0 mg/kg/injection, schedule: Q04DX003 (ip), vehicle: saline) was 97 % of control, the T/C (dose: 300.0 mg/kg/injection, schedule: Q01DX009 (ip), vehicle: saline) was 95 % of control and the T/C (dose: 400.0 mg/kg/injection, schedule: Q04DX003 (ip), vehicle: saline) was 97 % of control.
With `CCN(CC)CCN(C)c1ccc(CO)c2sc3cc(Cl)ccc3c(=O)c12` the T/C (dose: 7.81 mg/kg/injection, schedule: Q01DX009 (ip), vehicle: saline) was 101 % of control, the T/C (dose: 15.63 mg/kg/injection, schedule: Q01DX009 (ip), vehicle: saline) was 101 % of control and the T/C (dose: 31.25 mg/kg/injection, schedule: Q01DX009 (ip), vehicle: saline) was 100 % of control. For the same compound, the T/C (dose: 62.5 mg/kg/injection, schedule: Q01DX009 (ip), vehicle: saline) was 99 % of control.
In the case of `COc1ccc(OCCO)cc1`, the T/C [3] is reported as 95 % of control, the T/C [4] is reported as 96 % of control and the T/C [5] is reported as 98 % of control. For the same compound, the T/C [6] was 93 % of control, the T/C (dose: 400.0 mg/kg/injection, schedule: Q01DX009 (ip), vehicle: Klucel (hydroxypropylcellulose) (HPC)) was 103 % of control and the T/C [7] was 100 % of control.
In the case of `CCC(Cl)COP(=O)(OCC(Cl)CC)O/C(C)=C(/C)P(=O)(OCC(Cl)CC)OCC(Cl)CC` (centres undefined), the T/C (dose: 100.0 mg/kg/injection, schedule: Q04DX002 (ip), vehicle: saline with Tween-80) is reported as 104 % of control, the T/C (dose: 200.0 mg/kg/injection, schedule: Q04DX002 (ip), vehicle: saline with Tween-80) is reported as 96 % of control and the T/C (dose: 400.0 mg/kg/injection, schedule: Q04DX002 (ip), vehicle: saline with Tween-80) is reported as 100 % of control.
In the case of `C#CC(C)OCC1CO1` (centres undefined), the T/C [1] is reported as 86 % of control, the T/C (dose: 100.0 mg/kg/injection, schedule: Q01DX009 (ip), vehicle: saline) is reported as 86 % of control and the T/C (dose: 100.0 mg/kg/injection, schedule: Q04DX003 (ip), vehicle: saline sonified) is reported as 117 % of control. The T/C [2] was 93 % of control and the T/C (dose: 200.0 mg/kg/injection, schedule: Q04DX003 (ip), vehicle: saline sonified) was 93 % of control.
For `COc1cc(C(C)=O)cc([N+](=O)[O-])c1O`, the T/C (dose: 100.0 mg/kg/injection, schedule: Q04DX003 (ip), vehicle: saline with Tween-80) was 107 % of control and the T/C (dose: 200.0 mg/kg/injection, schedule: Q04DX003 (ip), vehicle: saline with Tween-80) was 105 % of control.
In the case of `O=C(Nc1nc2ccccc2s1)C(F)(F)F`, the T/C [8] is reported as 102 % of control, the T/C [9] is reported as 93 % of control and the T/C [10] is reported as 102 % of control.
For `O=C1C=CC(=O)C(SCCSC2=CC(=O)C(SCCSC3=CC(=O)C=CC3=O)=CC2=O)=C1`, the T/C [8] was 98 % of control, the T/C [9] was 101 % of control and the T/C [10] was 95 % of control.
In the case of `O=C(CBr)Nc1nccs1`, the T/C (dose: 3.12 mg/kg/injection, schedule: Q01DX009 (ip), vehicle: saline) is reported as 98 % of control, the T/C (dose: 6.25 mg/kg/injection, schedule: Q01DX009 (ip), vehicle: saline) is reported as 93 % of control and the T/C (dose: 12.5 mg/kg/injection, schedule: Q01DX009 (ip), vehicle: saline) is reported as 104 % of control. The T/C (dose: 12.5 mg/kg/injection, schedule: Q04DX003 (ip), vehicle: saline) was 98 % of control and the T/C (dose: 25.0 mg/kg/injection, schedule: Q04DX003 (ip), vehicle: saline) was 94 % of control.
With `O=C(COc1ccc(F)cc1F)Oc1ccc([N+](=O)[O-])cc1` the T/C [4] was 101 % of control, the T/C [6] was 104 % of control and the T/C [7] was 97 % of control.
With `C[n+]1cc(C#N)cc(C#N)c1` the T/C (dose: 75.0 mg/kg/injection, schedule: Q01DX001 (ip), vehicle: saline) was 90 % of control and the T/C (dose: 150.0 mg/kg/injection, schedule: Q01DX001 (ip), vehicle: saline) was 108 % of control.
With `Cc1c(I)sc(I)c1I` the T/C [11] was 94 % of control, the T/C [12] was 94 % of control and the T/C [13] was 100 % of control.
For `COc1ccc(-c2ccc(OC)cc2OC)c(OC)c1`, the T/C [11] was 112 % of control, the T/C [12] was 107 % of control and the T/C [13] was 112 % of control.
For `CC(=O)OCC1OC(n2cnc3c(=S)nc[nH]c32)C(OC(C)=O)C1OC(C)=O` (centres undefined), the T/C (dose: 6.5 mg/kg/injection, schedule: Q01DX Z (ip), vehicle: carboxymethylcellulose (CMC)) was 122 % of control, the T/C (dose: 13.0 mg/kg/injection, schedule: Q01DX Z (ip), vehicle: carboxymethylcellulose (CMC)) was 113 % of control and the T/C (dose: 40.0 mg/kg/injection, schedule: Q01DX Z (ip), vehicle: carboxymethylcellulose (CMC)) was 151 % of control. For the same compound, the T/C (dose: 180.0 mg/kg/injection, schedule: Q01DX Z (ip), vehicle: carboxymethylcellulose (CMC)) was 107 % of control.
For `CCc1ccccc1NC(=O)Nc1ccc(OC)cc1`, the T/C (dose: 25.0 mg/kg/injection, schedule: Q01DX009 (ip), vehicle: Klucel (hydroxypropylcellulose) (HPC)) was 90 % of control, the T/C (dose: 50.0 mg/kg/injection, schedule: Q01DX009 (ip), vehicle: Klucel (hydroxypropylcellulose) (HPC)) was 95 % of control and the T/C [3] was 93 % of control. For the same compound, the T/C (dose: 100.0 mg/kg/injection, schedule: Q04DX003 (ip), vehicle: Klucel (hydroxypropylcellulose) (HPC)) was 94 % of control, the T/C [5] was 86 % of control and the T/C (dose: 200.0 mg/kg/injection, schedule: Q04DX003 (ip), vehicle: Klucel (hydroxypropylcellulose) (HPC)) was 91 % of control. For the same compound, the T/C (dose: 400.0 mg/kg/injection, schedule: Q04DX003 (ip), vehicle: Klucel (hydroxypropylcellulose) (HPC)) was 96 % of control.
